Assays:
[1] = Concentration in the fur of a dog after topical spot-on solution of the thioamide; type: in vivo; settings: 0.1 ml/kg
Protocol: A topical spot-on solution of the thioamide solution containing 100 mg/ml of thioamide and diethylene glycol monoethyl ether was applied to the fur of a dog at the dose rate of 0.1 ml/kg of body weight. The concentration of fipronil in the fur was measured on day 2 and day 7.

[2] = In vitro degradation studies of the thioamide derivative of fipronil in CH3CN/H2O under degradation agents; type: physicochemical
Protocol: A solution containing thioamide derivative of fipronil in a solution of CH3CN/H2O (50:50 v/v) and the solution was subjected to the following degradation agents: 0.5 N HCl; 0.5 N NaOH; 5% H2O2; UV light; fluorescent light and heat (65° C.).

[3] = Concentration in blood plasma of dogs after oral solution of the thioamide derivative of fipronil; type: in vivo
Protocol: An oral formulation (solution) comprising 100 mg/ml of thioamide derivatives of fipronil dissolved in 60:40 propylene glycol: glycerol formal was administered to dogs and the concentration of fipronil in blood plasma measured at 6 hours, day 1, day 2, and day 7 and is presented below

concentration at 2 day ([1]; Day 2, topical spot-on 100 mg/ml thioamide in diethylene glycol monoethyl ether): 363000 ng/g
concentration at 7 day ([1]; Day 7, topical spot-on 100 mg/ml thioamide in diethylene glycol monoethyl ether): 59300 ng/g
amounts of fipronil formed ([2]; 0.5 N HCl, 4 days): negligible
thioamide derivative degraded ([2]; 0.5 N HCl, in 4 days, solution of CH3CN/H2O (50:50 v/v)): 2.7%
fipronil formed ([2]; 0.5 N NaOH, 1 hour): hour, but no fipronil was formed
fipronil sulfone formed ([2]; 5% H2O2, 1.5 hours): sulfone was formed.
degraded to fipronil ([2]; Fluorescent light, in 4 days, CH3CN/H2O (50:50 v/v)): 23% degraded to fipronil in 4 days.
concentration in blood plasma ([3]; Pre-treatment, oral solution 100 mg/ml thioamide derivative in 60:40 propylene glycol:glycerol formal): 0.0 µg/g
concentration at 6 h ([3]; dog, plasma, Day 0.25 (6 hours), oral solution 100 mg/ml thioamide derivative): 262000 ng/g
concentration at 1 day ([3]; dog, plasma, Day 1, oral solution 100 mg/ml thioamide derivative): 162000 ng/g
concentration at 2 day ([3]; dog, plasma, Day 2, oral solution 100 mg/ml thioamide derivative): 129000 ng/g
concentration at 7 day ([3]; dog, plasma, Day 7, oral solution 100 mg/ml thioamide derivative): 54600 ng/g
SMILES: NC(=S)c1nn(-c2c(Cl)cc(C(F)(F)F)cc2Cl)c(N)c1[S+]([O-])C(F)(F)F (stereo not shown) [thioamide derivative of fipronil]
stability in acid ([2]; 0.5 N HCl): Thioamide derivative stable in acid with only
thioamide derivative degraded ([2]; 0.5 N NaOH, in 1 hour, CH3CN/H2O (50:50 v/v)): 95% if the thioamide derivative degraded in 1
fipronil formed ([2]; 5% H2O2, 1.5 hours): 1.5 hours but no fipronil was formed; fipronil
thioamide derivative degraded ([2]; 5% H2O2, in 1.5 hours, CH3CN/H2O (50:50 v/v)): 100% of the thioamide derivation degraded in
degraded to fipronil ([2]; Heat (65° C.), in 4 days, CH3CN/H2O (50:50 v/v)): 20% of the thioamide derivation degraded to
thioamide derivative degraded ([2]; UV light, in 1 hour, CH3CN/H2O (50:50 v/v)): 24% of the thioamide derivation degraded in 1
in-vivo degradation into fipronil ([3]; oral solution): degrades into fipronil in-vivo in amounts that are sufficient for efficacy

— US20050234119A1, “Antiparasitical agents and methods for treating, preventing and controlling external parasites in animals” (priority 2004, published 2005)
